# Patent US10377741B2, “Substituted heteroaryl aldehyde compounds and methods for their use in increasing tissue oxygenation” (Global Blood Therapeutics, Inc., priority 2011, dated 2019)
# Legend:
# [1] = target: T1, purified Hemoglobin S (HbS) (Homo sapiens, UniProt P68871+P69905, E7V); test: Modulation of hemoglobin oxygen affinity: oxygen equilibrium curves (HEMOX) in purified HbS; type: biochemical, human (homozygous sickle cell patients); conditions: compound at 30 μM; 25 μM purified HbS, 45 min at 37° C.
# T1 construct: HbS was purified by a modified procedure; from tissue; host or cells: blood of homozygous sickle cell patients (CHORI); for the polymerization assay purified by the CRO VIRUSYS
# Procedure: Oxygen equilibrium curves (OEC) in purified Hemoglobin S (HbS) were measured by the change in p50, the partial pressure of oxygen at which the heme binding sites in the HbS sample are 50% saturated with oxygen. HbS was purified by a modified procedure (Antonini and Brunori, 1971; Heomoglobin and Myoglobin in their Reactions with Ligands; North Holland Publishing Company; Amsterdam, London) from blood obtained from homozygous sickle cell patients though the Hemoglobinopathy Center at Children's Hospital Oakland Research Institute (CHORI) with Institutional Review Board approval. Oxygen equilibrium curves were carried out with a HEMOX analyzer, (TCS Scientific, New Hope, Pa.). Five hundred μL of 250 μM purified HbS were diluted into 4.5 mL of HEMOX buffer (30 mM TES, 130 mM NaCl, 5 mM KCl, pH=7.4) resulting in a final hemoglobin concentration of 25 μM. The compounds were added at the final desired concentrations. The mixture was incubated for 45 min at 37° C. and then transferred to the Hemox sample chamber. The samples were saturated with oxygen by flushing with compressed air for 10 minutes. The samples were then flushed with pure nitrogen and the absorbance of deoxy-Hb was recorded as a function of the solution pO2. The oxygen equilibrium data was then fit to the Hill Model to obtain values for p50. The deoxygenation curves for both HbS alone (control) and HbS in the presence of compound were collected with the TCS software. The p50 for purified Hbs was typically 13.8±1.6. Delta p50 values were obtained from the p50 value for control minus the p50 value for HbS treated with compound divided by the p50 value for the control.
# The compounds of Table 1 that were where tested in the assay above were all found to have positive delta p50 values. Delta p50% is calculated from [[p50(HbS) −p50(HbS treated with compound)]/p50(HbS)]×100. Table 2 below lists the delta p50% values where + indicates a delta p50% of between 0 and 29, ++ indicates a delta p50% of between 30 and 50, and +++ indicates a delta p50% of 50 or greater. Unless noted otherwise, the compounds in Table 2 were tested at 30 μM.
# HbS/A = target: T2, HbS/A (Homo sapiens, UniProt P68871+P69905, E7V); test: R/T assay (relaxed-to-tense transition under deoxygenated conditions); type: biochemical, human (homozygous sickle cell patients); conditions: compound at 9 μM; 3 μM HbS/A; % R remaining vs no treatment
# T2 construct: A mixture of HbS/A was purified from blood; from tissue; host or cells: blood of homozygous sickle cell patients (CHORI)
# Procedure: A relaxed-to-tense transition assay (“R/T assay”) was used to determine the ability of substituted benzaldehyde compounds to maintain the high-oxygen affinity relaxed (R) state of hemoglobin under deoxygenated conditions. This ability can be expressed as a “delta R” value (i.e., the change in the time-period of the R state after hemoglobin is treated with a compound, as compared to the period without treatment with the compound). Delta R is the % R to remaining after the compounds treatment compared with no treatment (e.g. if R % without treatment is 8% while with treatment with a target compound is 48% R at 30 μM, then % R is 40% for that compound.
# A mixture of HbS/A was purified from blood obtained from homozygous sickle cell patients though the Hemoglobinopathy Center at Children's Hospital Oakland Research Institute (CHORI) with Institutional Review Board approval. HbS/A (at a final concentration of 3 μM) was incubated for 1 hr at 37° C. in presence or absence of compounds in […] potassium phosphate buffer, pH=7.4 and 30 μM 2, 3 diphosphoglycerate (DPG) in 96 well plates in a final volume of 160 μl. Compounds were added at different concentrations (3 μM to 100 μM final concentrations). Plates were covered with a Mylar film. After incubation was completed the Mylar cover was removed and the plates were placed in a Spectrostar Nano plate reader previously heated at 37° C. Five minutes later, N2 (flow rate=20 L/min) was flowed through the spectrophotometer. Spectroscopic measurements (300 nm to 700 nm) were taken every 5 min for 2 hours. Data analysis was performed by using linear regression from the data retrieved for all wavelengths.
# Table 4 below lists the delta R values where + indicates a delta R of between 0 and 30, ++ indicates a delta R of between 30 and 50, and +++ indicates a delta R of 50 or greater. Unless noted otherwise, the compounds in Table 2 were tested at 30 μM.
SMILES,delta p50% [1],delta R (HbS/A)
"COc1cc(C=O)c(OCc2cccnc2-c2ccnn2COCC[Si](C)(C)C)cn1 [Compound 193, 2-methoxy-5-((2-(1-((2-(trimethylsilyl)ethoxy)methyl)-1H-pyrazol-5-yl)pyridin-3-yl)methoxy)isonicotinaldehyde]",++ (a delta p50% of between 30 and 50),+ (a delta R of between 0 and 30)
"COc1cc(C=O)c(OCc2cccc3c2cnn3C)cn1 [Compound 84, 2-methoxy-5-((1-methyl-1H-indazol-4-yl)methoxy)isonicotinaldehyde]",++ (a delta p50% of between 30 and 50),++ (a delta R of between 30 and 50)
"COc1cc(C=O)c(OCc2cncc(Br)c2)cn1 [Compound 66, 5-((5-bromopyridin-3-yl)methoxy)-2-methoxyisonicotinaldehyde]",++ (a delta p50% of between 30 and 50),++ (a delta R of between 30 and 50)
"COc1cc(C=O)c(OCc2ccc3ccccc3n2)cn1 [Compound 45, 2-methoxy-5-(quinolin-2-ylmethoxy)isonicotinaldehyde]",+++ (a delta p50% of 50 or greater),++ (a delta R of between 30 and 50)
"COC(=O)c1cccn2cc(COc3cnc(OC)cc3C=O)nc12 [Compound 53, methyl 2-((4-formyl-6-methoxypyridin-3-yloxy)methyl)imidazo[1,2-a]pyridine-8-carboxylate]",++ (a delta p50% of between 30 and 50),+ (a delta R of between 0 and 30)
"COc1cc(C=O)c(OCc2cccnc2Br)cn1 [Compound 63, 5-((2-bromopyridin-3-yl)methoxy)-2-methoxyisonicotinaldehyde]",+++ (a delta p50% of 50 or greater),++ (a delta R of between 30 and 50)
"COc1cc(C=O)c(OCc2ccncc2)cn1 [Compound 46, 2-methoxy-5-(pyridin-4-ylmethoxy)isonicotinaldehyde]",++ (a delta p50% of between 30 and 50),+ (a delta R of between 0 and 30)
"COc1cc(C=O)c(OCc2cncc(C)c2)cn1 [Compound 43, 2-methoxy-5-((5-methylpyridin-3-yl)methoxy)isonicotinaldehyde]",++ (a delta p50% of between 30 and 50),+ (a delta R of between 0 and 30)
"COc1cc(C=O)c(OCc2cncc(-c3ccn[nH]3)c2)cn1 [Compound 70, 5-((5-(1H-pyrazol-5-yl)pyridin-3-yl)methoxy)-2-methoxyisonicotinaldehyde]",+ (a delta p50% of between 0 and 29),–
"O=Cc1ccncc1OCc1cccn2ccnc12 [Compound 6, 3-(imidazo[1,2-a]pyridin-8-ylmethoxy)isonicotinaldehyde]",+ (a delta p50% of between 0 and 29),–
"COc1cc(C2OCCO2)c(OCc2cn3cccc(C(N)=O)c3n2)cn1 [Compound 68, 2-((4-(1,3-dioxolan-2-yl)-6-methoxypyridin-3-yloxy)methyl)imidazo[1,2-a]pyridine-8-carboxamide]",+ (a delta p50% of between 0 and 29),–
"Cc1ccc(OCc2cnc3ccccc3c2)c(C=O)n1 [Compound 81, 6-methyl-3-(quinolin-3-ylmethoxy)picolinaldehyde]",+ (a delta p50% of between 0 and 29),–
"COc1cc(C=O)c(OCc2cncc(-c3cnn(C)c3)c2)cn1 [Compound 77, 2-methoxy-5-((5-(1-methyl-1H-pyrazol-4-yl)pyridin-3-yl)methoxy)isonicotinaldehyde]",+ (a delta p50% of between 0 and 29),–

# The next lines start with the values.
delta p50% [1],delta R (HbS/A),SMILES
++ (a delta p50% of between 30 and 50),+ (a delta R of between 0 and 30),"COc1cc(C=O)c(OCc2cccnc2-n2cccn2)cn1 [Compound 134, 5-((2-(1H-pyrazol-1-yl)pyridin-3-yl)methoxy)-2-methoxyisonicotinaldehyde]"
++ (a delta p50% of between 30 and 50),+ (a delta R of between 0 and 30),"Cc1ccc(OCc2cccc3c2cnn3C(=O)OC(C)(C)C)c(C=O)n1 [Compound 86, tert-butyl 4-((2-formyl-6-methylpyridin-3-yloxy)methyl)-1H-indazole-1-carboxylate]"
++ (a delta p50% of between 30 and 50),+++ (a delta R of 50 or greater),"Cc1ccc(OCc2ccc3cnn(C)c3c2)c(C=O)n1 [Compound 91, 6-methyl-3-((1-methyl-1H-indazol-6-yl)methoxy)picolinaldehyde]"
++ (a delta p50% of between 30 and 50),++ (a delta R of between 30 and 50),"Cc1ccc(OCc2cccc3ncccc23)c(C=O)n1 [Compound 119, 6-methyl-3-(quinolin-5-ylmethoxy)picolinaldehyde]"
++ (a delta p50% of between 30 and 50),+ (a delta R of between 0 and 30),"COCCn1nccc1-c1ncccc1COc1cnc(OC)cc1C=O [Compound 172, 2-methoxy-5-((2-(1-(2-methoxyethyl)-1H-pyrazol-5-yl)pyridin-3-yl)methoxy)isonicotinaldehyde]"
+ (a delta p50% of between 0 and 29),–,"COC(=O)c1cncc(COC(=O)c2cncc(COc3cnc(OC)cc3C=O)c2)c1 [Compound 141, (5-(methoxycarbonyl)pyridin-3-yl)methyl 5-(((4-formyl-6-methoxypyridin-3-yl)oxy)methyl)nicotinate]"
+ (a delta p50% of between 0 and 29),–,"COC(=O)c1cc(COc2cnc(OC)cc2C=O)c2nccn2c1 [Compound 137, methyl 8-(((4-formyl-6-methoxypyridin-3-yl)oxy)methyl)imidazo[1,2-a]pyridine-6-carboxylate]"
+ (a delta p50% of between 0 and 29),–,"Cc1ccc(OCc2cccc3[nH]ncc23)c(C=O)n1 [Compound 88, 3-((1H-indazol-4-yl)methoxy)-6-methylpicolinaldehyde]"
+ (a delta p50% of between 0 and 29),–,"COc1cc(C=O)c(OCc2cc(-c3ccn[nH]3)cn3ccnc23)cn1 [Compound 104, 5-((6-(1H-pyrazol-5-yl)imidazo[1,2-a]pyridin-8-yl)methoxy)-2-methoxyisonicotinaldehyde]"
+ (a delta p50% of between 0 and 29),–,"COc1cc(C=O)c(OCc2cc(Br)cn3ccnc23)cn1 [Compound 96, 5-((6-bromoimidazo[1,2-a]pyridin-8-yl)methoxy)-2-methoxyisonicotinaldehyde]"
++ (a delta p50% of between 30 and 50),+ (a delta R of between 0 and 30),"COc1cc(C=O)c(OCc2cccnc2-c2cccnc2)cn1 [Compound 161, 5-([2,3′-bipyridin]-3-ylmethoxy)-2-methoxyisonicotinaldehyde]"
